Literature values in patent US9932302B1, “N-phenyl and N-benzyl enaminones and methods for using same” (University of Maryland Eastern Shore, priority 2013, dated 2018).

Tests used:
Settings in all cases: pre-clinical pharmacological profile
[1] = system: maximal electroshock seizure (MES)
[2] = system: subcutaneous Metrazol (sc Met) induced seizure
[3] = system: 6 Hz psychomotor seizure

Structure (SMILES)	MES activity profile of current AED [1]	scPTZ activity profile of current AED [2]	6 Hz activity profile of current AED [3]
O=C1NC(=O)C(c2ccccc2)(c2ccccc2)N1 [phenytoin]	active	active	–
CC[C@@H](C(N)=O)N1CCCC1=O [levetiracetam]	–	–	active
